Among the test systems are TK-10; SK-MEL-2; UACC-257; SF-539; OVCAR-4; U-251; MOLT-4; UACC-62; OVCAR-5; HCC 2998; MDA-MB-231; HCT-15; HCT-116; NCI-H226; RXF 393; IGROV-1; SNB-75; OVCAR-3; SF-295; SR.
Assay in all cases: inhibition of tumour cell growth, NCI panel, 48 h

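These data come from cells grown in 96-well plates and exposed to compound for 48 hours at five concentrations. Abbreviation: GI50, concentration required for 50% inhibition of growth.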 The source made the active and inactive calls. Cut-off read from the data, not from the text of the source: active = GI50 up to about 1.1 µM and inactive = higher. A value given as a limit tells only on which side of the number the result lay.

For the molecule `CCOC(=O)c1c(C)n(-c2ccc(C)cc2)c(=O)c2ccccc2c(=O)c2c(=O)ccc(=O)c1=2`, the GI50 in the assay on TK-10 is 15.5 µM (inactive); in the assay with SK-MEL-2, 27 µM (inactive); in the assay with UACC-257 it was 18.5 µM (inactive); in the assay on SF-539, 21.9 µM (inactive); with OVCAR-4, 21.4 µM (inactive); in the assay on U-251 it was 19.4 µM (inactive). In addition, the GI50 in the assay on MOLT-4 is 2.87 µM (inactive); with UACC-62, 19.6 µM (inactive); in the assay on OVCAR-5, 28.6 µM (inactive); in the assay with HCC 2998, 14.3 µM (inactive); with MDA-MB-231 it was 16.1 µM (inactive); with HCT-15, 14.3 µM. Further, the GI50 in the assay on HCT-116 was 17.2 µM (inactive); with NCI-H226, 18.2 µM (inactive); in the assay on RXF 393, 17.4 µM (inactive); in the assay on IGROV-1 it was 37.5 µM (inactive); in the assay on SNB-75 it was 23.3 µM (inactive); in the assay with OVCAR-3, 16.2 µM (inactive).
On to `COc1ccc(Cc2c(N)[nH]c(=O)[nH]c2=O)cc1`, for which the GI50 with TK-10, in the assay with SK-MEL-2, in the assay on UACC-257, in the assay on SF-539, in the assay with OVCAR-4 and with U-251 was > 100 µM (inactive) throughout. In addition, the GI50 in the assay with UACC-62 is > 100 µM (inactive); with OVCAR-5, > 100 µM (inactive); in the assay on SF-295, > 100 µM (inactive); with HCC 2998, > 100 µM (inactive); in the assay on MDA-MB-231, > 100 µM (inactive); in the assay with HCT-15 it was over 100 µM. In addition, the GI50 in the assay on HCT-116, in the assay with NCI-H226, in the assay with RXF 393, with IGROV-1, with SNB-75 and in the assay with OVCAR-3 was > 100 µM (inactive) each time.
On to `CCCC#CCOC(=O)c1cc([N+](=O)[O-])cc([N+](=O)[O-])c1`, for which the GI50 with TK-10, in the assay on SK-MEL-2, with UACC-257, in the assay on SF-539, in the assay on U-251 and in the assay on MOLT-4 was > 100 µM (inactive) in each case. Further, the GI50 in the assay with UACC-62, with OVCAR-5, in the assay on SF-295, in the assay with HCC 2998, with MDA-MB-231 and in the assay on SR was > 100 µM (inactive) throughout. Besides, the GI50 with HCT-15 was over 100 µM; with HCT-116, > 100 µM (inactive); in the assay with IGROV-1 it was > 100 µM (inactive); in the assay with SNB-75, > 100 µM (inactive); with OVCAR-3, > 100 µM (inactive).
As for `Nc1cc(CO)cc(Nc2c3ccccc3nc3occc23)c1`, the GI50 with TK-10 is 52.6 µM (inactive); in the assay with SK-MEL-2 it was 23.6 µM (inactive); with UACC-257, 42.6 µM (inactive); with SF-539, 24.8 µM (inactive); in the assay on OVCAR-4, 17.1 µM (inactive); with U-251, 45.9 µM (inactive). In addition, the GI50 is 13.7 µM (inactive) with MOLT-4; 20.8 µM (inactive) with UACC-62; > 100 µM (inactive) with OVCAR-5; 37.7 µM (inactive) in the assay on SF-295; 31.3 µM (inactive) in the assay with HCC 2998; 31.8 µM (inactive) with MDA-MB-231. Further, the GI50 in the assay on SR was 3.91 µM (inactive); in the assay with HCT-15, 25.6 µM; in the assay with HCT-116, 24.8 µM (inactive); in the assay on NCI-H226 it was 29.1 µM (inactive); with IGROV-1 it was 24.5 µM (inactive); in the assay on OVCAR-3 it was 72.4 µM (inactive).
Turning to `COc1ccc(COCC[C@H](C)OC2OC(CO[Si](C)(C)C(C)(C)C)C(OC(=O)CCCN=[N+]=[N-])C(OC(=O)CCCN=[N+]=[N-])C2OC(=O)CCCN=[N+]=[N-])cc1` (some centres not stated), the GI50 in the assay on TK-10 was > 100 µM (inactive); in the assay on SK-MEL-2, > 100 µM (inactive); in the assay with UACC-257, 26.5 µM (inactive); in the assay with SF-539, 27.5 µM (inactive); with OVCAR-4, 27.9 µM (inactive); in the assay on U-251 it was 29.6 µM (inactive). In addition, the GI50 with UACC-62 was 58.9 µM (inactive); in the assay with OVCAR-5, 89.1 µM (inactive); in the assay on SF-295, 89.3 µM (inactive); with HCC 2998 it was 34.4 µM (inactive); in the assay with MDA-MB-231 it was > 100 µM (inactive); with HCT-15, 28.4 µM. For the same molecule, the GI50 is 19.5 µM (inactive) in the assay on HCT-116; 8.39 µM (inactive) with NCI-H226; 98.2 µM (inactive) in the assay on RXF 393; 51.5 µM (inactive) in the assay with IGROV-1; 14.2 µM (inactive) with SNB-75; 61.8 µM (inactive) with OVCAR-3.
`CC(C)(CC(=O)Nc1ccccc1)C(=O)O`: the GI50 in the assay on TK-10, in the assay on SK-MEL-2, in the assay with UACC-257, in the assay on SF-539, in the assay with OVCAR-4 and in the assay on U-251 was > 100 µM (inactive) throughout. In addition, the GI50 in the assay with MOLT-4, with UACC-62, with OVCAR-5, in the assay with SF-295, in the assay with MDA-MB-231 and with SR was > 100 µM (inactive) in each case. The GI50 in the assay on HCT-15 is over 100 µM; with HCT-116, > 100 µM (inactive); with NCI-H226 it was > 100 µM (inactive); with IGROV-1 it was > 100 µM (inactive); with OVCAR-3, > 100 µM (inactive).
For `O=[N+]([O-])c1ccccc1S(=O)(=O)c1cc(O)cc2c1NCCC2`, the GI50 was 21.4 µM (inactive) in the assay on TK-10; 23.7 µM (inactive) with SK-MEL-2; 13.5 µM (inactive) in the assay with UACC-257; 19.1 µM (inactive) in the assay on SF-539; 15.3 µM (inactive) in the assay on OVCAR-4; 20.2 µM (inactive) in the assay on U-251. The GI50 was 4.23 µM (inactive) with MOLT-4; 15.2 µM (inactive) with UACC-62; 23 µM (inactive) in the assay with OVCAR-5; 25.3 µM (inactive) in the assay with SF-295; 25.5 µM (inactive) in the assay on HCC 2998; 18.2 µM (inactive) in the assay on MDA-MB-231. For the same molecule, the GI50 in the assay on HCT-15 was 19.6 µM; in the assay on HCT-116, 5.78 µM (inactive); in the assay on NCI-H226, 28.1 µM (inactive); with RXF 393, 16.4 µM (inactive); in the assay with IGROV-1, 17.1 µM (inactive); with SNB-75 it was 14.5 µM (inactive). Moreover, in the assay on OVCAR-3, the GI50 was 7.55 µM (inactive).
Turning to `CON(C)C(=O)C1CCCO1` (configuration not stated), the GI50 in the assay with TK-10 is > 100 µM (inactive); in the assay on SK-MEL-2 it was > 100 µM (inactive); in the assay on UACC-257 it was 57.5 µM (inactive); with SF-539 it was > 100 µM (inactive); with OVCAR-4, > 100 µM (inactive); in the assay with U-251, > 100 µM (inactive). For the same molecule, the GI50 with MOLT-4, in the assay with UACC-62, in the assay with OVCAR-5, in the assay on SF-295, in the assay on MDA-MB-231 and in the assay on SR was > 100 µM (inactive) in each case. For the same molecule, the GI50 in the assay on HCT-15 is over 100 µM; in the assay on HCT-116, > 100 µM (inactive); in the assay on NCI-H226, > 100 µM (inactive); in the assay with IGROV-1, > 100 µM (inactive); in the assay with SNB-75, > 100 µM (inactive); in the assay on OVCAR-3, > 100 µM (inactive).
With `COc1ccc(C(=CCC(C)C2CCC3[C@@H]4C(OC(C)=O)CC5CC(OC(C)=O)CC[C@]5(C)C4CC(OC(C)=O)[C@]23C)c2ccc(OC)cc2)cc1` (some centres not stated), the GI50 in the assay with TK-10 was > 100 µM (inactive); with UACC-257, 99.5 µM (inactive); with SF-539 it was 97.7 µM (inactive); in the assay with OVCAR-4, 19.1 µM (inactive); in the assay on U-251, > 100 µM (inactive); with MOLT-4, 17.1 µM (inactive). Moreover, the GI50 was 72.8 µM (inactive) in the assay on OVCAR-5; > 100 µM (inactive) in the assay on SF-295; > 100 µM (inactive) in the assay on HCC 2998; > 100 µM (inactive) in the assay with MDA-MB-231; 19.5 µM (inactive) in the assay on SR; 86.5 µM in the assay on HCT-15. Besides, the GI50 in the assay on HCT-116 was 66.1 µM (inactive); with IGROV-1 it was > 100 µM (inactive); in the assay on SNB-75 it was 34.8 µM (inactive).
Take `CC(C)(C)OC(=O)NCCC1SC2C=CC1C2` (configuration not stated): the GI50 with TK-10, in the assay on SK-MEL-2, with UACC-257, in the assay on SF-539, in the assay with OVCAR-4 and with U-251 was > 100 µM (inactive) throughout. Besides, the GI50 in the assay with MOLT-4, with UACC-62, in the assay on OVCAR-5, in the assay on SF-295, with HCC 2998 and in the assay on MDA-MB-231 was > 100 µM (inactive) throughout. Also, the GI50 was over 100 µM in the assay with HCT-15; > 100 µM (inactive) with HCT-116; > 100 µM (inactive) with NCI-H226; > 100 µM (inactive) in the assay on RXF 393; > 100 µM (inactive) in the assay on IGROV-1; > 100 µM (inactive) with SNB-75. Further, the GI50 in the assay on OVCAR-3 is > 100 µM (inactive).
Regarding `COC(=NC(C)C)NC(C)C`, the GI50 in the assay with TK-10, with SK-MEL-2, in the assay on SF-539, in the assay on U-251, in the assay on MOLT-4 and in the assay with UACC-62 was > 100 µM (inactive) throughout. For the same molecule, the GI50 was > 100 µM (inactive) in the assay on OVCAR-5; > 100 µM (inactive) with HCC 2998; > 100 µM (inactive) in the assay on MDA-MB-231; 77.3 µM (inactive) in the assay on SR; over 100 µM with HCT-15; > 100 µM (inactive) in the assay with HCT-116. The GI50 in the assay on NCI-H226, in the assay with IGROV-1 and with SNB-75 was > 100 µM (inactive) in each case.
